Source: PubChem BioAssay (NCI)
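Where inhibition never reached the appropriate level, the endpoint shown equals the highest concentration tested. Otherwise, values were interpolated linearly from a five-concentration, 48-hour dose response in 96-well plates. Definition used: TGI = concentration required for complete inhibition of growth.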 Where a SMILES comes first, the peptide text is derived from it. [ ]: non-standard residue; d: D form. The star is where a group is joined. Octanoyl = CCCCCCCC(=O)*; Aib = CC(C)(N)C(=O)O; tBu = CC(C)(C)*

Tests used:
Assay in all cases: DTP human tumour cell line panel, 48 h
BT-549 breast = test system: BT-549 breast
SNB-75 CNS = test system: SNB-75 CNS
SK-OV-3 ovarian = test system: SK-OV-3 ovarian
OVCAR-5 ovarian = test system: OVCAR-5 ovarian
KM12 colon = test system: KM12 colon
HT29 colon = test system: HT29 colon
EKVX NSCLC = test system: EKVX NSCLC
SK-MEL-5 melanoma = test system: SK-MEL-5 melanoma
NCI/ADR-RES ovarian = test system: NCI/ADR-RES ovarian
HL-60(TB) leukemia = test system: HL-60(TB) leukemia
SNB-19 CNS = test system: SNB-19 CNS
SK-MEL-2 melanoma = test system: SK-MEL-2 melanoma
CAKI-1 renal = test system: CAKI-1 renal
SK-MEL-28 melanoma = test system: SK-MEL-28 melanoma
786-0 renal = test system: 786-0 renal
MOLT-4 leukemia = test system: MOLT-4 leukemia

SMILES | TGI (BT-549 breast) | TGI (SNB-75 CNS) | TGI (SK-OV-3 ovarian) | TGI (OVCAR-5 ovarian) | TGI (KM12 colon) | TGI (HT29 colon) | TGI (EKVX NSCLC) | TGI (SK-MEL-5 melanoma) | TGI (NCI/ADR-RES ovarian) | TGI (HL-60(TB) leukemia) | TGI (SNB-19 CNS) | TGI (SK-MEL-2 melanoma) | TGI (CAKI-1 renal) | TGI (SK-MEL-28 melanoma) | TGI (786-0 renal) | TGI (MOLT-4 leukemia)
CC(=O)OCC1OC(n2c(N)c(C#N)c(-c3ccc(C)cc3)c(C#N)c2=S)C(OC(C)=O)C(OC(C)=O)C1OC(C)=O (stereo not drawn) | > 100 µM | 29.5 µM | 66.5 µM | > 100 µM | > 100 µM | 39.1 µM | 34.7 µM | 23.2 µM | 91.9 µM | > 100 µM | 34.8 µM | 28.5 µM | > 100 µM | > 100 µM | 29.2 µM | –
CCCCCCCC(=O)NC(C)(C)C(=O)NC(COC(C)(C)C)C(=O)NC(CC(C)C)C(=O)NC(C)(C)C(=O)NC(COC(C)(C)C)C(=O)NC(COC(C)(C)C)C(=O)NC(CC(C)C)C(=O)NC(C)(C)C(=O)NC(COC(C)(C)C)C(=O)NC(C(=O)NC(CC(C)C)C(=O)OC)C(C)CC (stereo not drawn) (Octanoyl-[Aib]S(tBu)L[Aib]S(tBu)S(tBu)L[Aib]S(tBu)IL-OMe; configuration not given here) | 13.1 µM | 16.4 µM | > 25 µM | 22.3 µM | 22 µM | 11.9 µM | 16.3 µM | 16.2 µM | > 25 µM | 15.6 µM | > 25 µM | 13.5 µM | > 25 µM | > 25 µM | 23.4 µM | > 25 µM
c1cncc(-c2ncc3cccnc3n2)c1 | > 100 µM | > 100 µM | > 100 µM | > 100 µM | > 100 µM | > 100 µM | > 100 µM | > 100 µM | > 100 µM | > 100 µM | > 100 µM | > 100 µM | > 100 µM | – | > 100 µM | > 100 µM
O=C(OCC1OC(c2nn[nH]n2)C(OC(=O)c2ccccc2)C1OC(=O)c1ccccc1)c1ccccc1 (stereo not drawn) | > 100 µM | > 100 µM | > 100 µM | > 100 µM | > 100 µM | > 100 µM | > 100 µM | > 100 µM | > 100 µM | > 100 µM | > 100 µM | > 100 µM | > 100 µM | – | > 100 µM | > 100 µM
O=[N+]([O-])c1cc(Cl)cc2cc(Cl)cnc12 | > 100 µM | 98 µM | – | > 100 µM | – | > 100 µM | > 100 µM | > 100 µM | > 100 µM | > 100 µM | > 100 µM | – | > 100 µM | > 100 µM | > 100 µM | > 100 µM
O=C(NCCO)Nc1c(C(F)(F)F)cc(-c2ccccc2)[nH]c1=O | > 100 µM | – | > 100 µM | > 100 µM | > 100 µM | > 100 µM | > 100 µM | > 100 µM | > 100 µM | > 100 µM | > 100 µM | > 100 µM | > 100 µM | > 100 µM | > 100 µM | > 100 µM
COc1cc([C@@H]2c3[nH]c4ccccc4c3C(Nc3ccc([N+](=O)[O-])cc3)[C@H]3COC(=O)N23)cc(OC)c1O (stereo partly drawn) | 4.87 µM | 1.66 µM | 2.31 µM | 2.06 µM | 2.71 µM | – | 17 µM | 0.663 µM | > 100 µM | 0.048 µM | 0.698 µM | > 72.7 µM | 2.11 µM | 0.704 µM | 0.665 µM | 0.289 µM
S=C(S)N1CCN(c2ccc(Cl)c(Cl)c2)CC1 | > 100 µM | > 100 µM | – | > 100 µM | 34.5 µM | 49.3 µM | > 100 µM | 30.5 µM | > 100 µM | 44.3 µM | > 100 µM | 34.6 µM | 59.8 µM | 62.7 µM | > 100 µM | –
CN(CCCCN(C)CCc1ccc(Cl)c(Cl)c1)CCCCN1CCCC1 | 4.6 µM | 3.72 µM | 6.05 µM | 5.54 µM | 1.92 µM | 1.88 µM | 3.54 µM | 3.19 µM | 13.4 µM | 3.97 µM | 5.23 µM | 3.12 µM | 3.13 µM | 1.06 µM | 2.55 µM | –
CC(=O)N[C@H]1CCCC[C@@H]1OC(C)=O | > 100 µM | > 100 µM | > 100 µM | > 100 µM | > 100 µM | > 100 µM | > 100 µM | > 100 µM | > 100 µM | > 100 µM | – | > 100 µM | > 100 µM | > 100 µM | > 100 µM | > 100 µM
CN(C1=NCCO1)c1cccc2c1CCCC2 | > 10 µM | – | > 10 µM | > 10 µM | > 10 µM | 5.2 µM | > 10 µM | 4.84 µM | > 10 µM | > 10 µM | > 10 µM | > 10 µM | > 10 µM | > 10 µM | > 10 µM | > 10 µM
